# Data reported in patent US20230116703A1, “NOVEL ERGOLINES AND METHODS OF TREATING MOOD DISORDERS” (priority 2021, published 2023).
# Tests used:
# 5-HT2A receptor [1] = target: T1, 5-HT2A receptor (Homo sapiens, UniProt P28223); experiment: biochemical; assay type: binding; conditions: 1 nM [^3H]ketanserin, HEK293 stable cell line; read-out: 5-HT2A Receptor Ki (nM) ([^3H]ketanserin)
# T1 construct: host or cells: HEK293
# Description: Affinity of the test compounds for the 5-HT2A receptor was determined in radioligand binding experiments with [^3H]ketanserin by WuXi AppTec (Hong Kong) Limited, using methods adapted from the literature and under conditions described in Table 1.
# 5-HT2A receptor [2] = target: T1, 5-HT2A receptor; experiment: cell-based; assay type: cell-based; conditions: for 5-HT2A % Act @ Max Dose / EC50: Ca^2+ flux, agonist; for EC50: read-out: 5-HT2A EC50
# Description: (§1) Functional Assays at 5-HT2A, 5-HT2B, and 5-HT1A. Agonist activity at 5-HT2A, 5-HT2B, and 5-HT1A receptors was determined using a FLIPR Ca^2+ flux assay at WuXi AppTec (Hong Kong) Limited according to their standard protocols. Briefly, stably transfected cells expressing the receptor of interest (HEK293 for 5-HT2A and 5-HT2B; CHO cells for 5-HT1A) were grown and plated in a 384 well plate and incubated at 37° C. and 5% CO2 overnight. A solution of 250 mM probenecid in 1 mL FLIPR assay buffer was prepared fresh. This was combined with a fluorescent dye (Fluo-4 Direct™) to make a final assay concentration of 2.5 mM. […] The fluorescent dye was then added to the assay plate along with assay buffer to a final volume of 40 μL. The cell plate was incubated for 50 min at 37° C. and 5% CO2 and placed into the FLIPR Tetra along with the compound plate. 10 μL of references and compounds were then transferred from the compound plate into the cell plate and the fluorescent signal was read.
# 5-HT1A receptor = target: T2, 5-HT1A receptor (Homo sapiens, UniProt P08908); experiment: cell-based; conditions: Ca^2+ flux, agonist; for EC50: read-out: 5-HT1A EC50
# T2 construct: host or cells: CHO cells
# T2 sequence (P08908 1-422): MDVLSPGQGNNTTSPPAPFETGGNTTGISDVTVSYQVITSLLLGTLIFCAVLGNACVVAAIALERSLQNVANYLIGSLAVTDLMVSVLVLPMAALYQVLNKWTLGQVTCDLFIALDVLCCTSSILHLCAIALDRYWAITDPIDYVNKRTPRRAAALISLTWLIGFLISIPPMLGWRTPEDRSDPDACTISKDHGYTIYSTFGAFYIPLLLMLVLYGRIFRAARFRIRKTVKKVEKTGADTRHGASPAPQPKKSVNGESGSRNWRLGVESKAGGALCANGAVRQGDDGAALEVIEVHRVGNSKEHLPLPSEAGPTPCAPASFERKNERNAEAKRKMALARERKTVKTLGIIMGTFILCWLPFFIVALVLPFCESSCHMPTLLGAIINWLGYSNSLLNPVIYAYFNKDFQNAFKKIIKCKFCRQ
# Description: as §1
# 5-HT2B receptor = target: T3, 5-HT2B receptor (Homo sapiens, UniProt P41595); experiment: cell-based; conditions: Ca^2+ flux, agonist; for EC50: read-out: 5-HT2B EC50
# T3 construct: host or cells: HEK293
# T3 sequence (P41595 whole entry): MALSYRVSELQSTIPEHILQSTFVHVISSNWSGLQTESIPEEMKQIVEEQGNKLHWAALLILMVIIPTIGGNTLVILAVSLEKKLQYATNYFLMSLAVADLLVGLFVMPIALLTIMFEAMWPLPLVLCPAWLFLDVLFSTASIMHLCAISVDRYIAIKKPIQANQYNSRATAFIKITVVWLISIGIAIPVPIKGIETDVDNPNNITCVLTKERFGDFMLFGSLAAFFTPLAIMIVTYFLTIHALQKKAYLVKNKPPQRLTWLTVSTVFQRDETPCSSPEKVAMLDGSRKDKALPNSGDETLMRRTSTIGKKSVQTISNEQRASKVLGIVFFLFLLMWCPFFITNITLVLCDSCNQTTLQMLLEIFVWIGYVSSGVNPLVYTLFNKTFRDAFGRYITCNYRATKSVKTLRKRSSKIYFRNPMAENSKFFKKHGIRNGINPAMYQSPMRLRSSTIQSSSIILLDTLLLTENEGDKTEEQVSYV
# Description: as §1
# 5-HT1B receptor = 5-HT1B receptor (Homo sapiens, UniProt P28222); experiment: cAMP accumulation agonist assay at 5-HT1B; assay type: cell-based; conditions: cAMP, agonist; for EC50: read-out: 5-HT1B EC50
# Chain of 5-HT1B receptor (P28222 whole entry): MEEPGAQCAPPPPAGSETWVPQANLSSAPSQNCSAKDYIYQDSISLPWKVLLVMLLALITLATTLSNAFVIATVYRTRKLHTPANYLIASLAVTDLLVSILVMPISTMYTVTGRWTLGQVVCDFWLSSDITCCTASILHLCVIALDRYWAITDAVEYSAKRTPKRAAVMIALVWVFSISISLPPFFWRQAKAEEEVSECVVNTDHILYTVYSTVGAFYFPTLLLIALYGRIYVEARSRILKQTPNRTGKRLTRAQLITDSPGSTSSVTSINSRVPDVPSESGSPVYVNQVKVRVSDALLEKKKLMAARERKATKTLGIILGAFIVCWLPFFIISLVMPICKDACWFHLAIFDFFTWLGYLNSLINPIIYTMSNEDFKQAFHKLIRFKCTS
# Description: Disclosed compounds were tested for agonist activity at several serotonin receptor subtypes (5-HT2A, […], 5-HT2C, and 5-HT1A) using Ca^2+ flux functional assays and the 5-HT1B receptor using a cAMP accumulation assay, with the results summarized in Table 4. […] Potent agonist activity was also observed at the other serotonin receptors tested, although the selectivity profile among the receptors varied across compounds. […]. However, at the same time, the N-propyl compounds were more efficacious agonists at 5-HT2B than the corresponding N-methyl compounds. The selectivity of disclosed compounds for 5-HT2A over 5-HT2C and 5-HT1A was less predictable and varied widely across compounds, ranging from ˜1:6 to ˜20:1 (2C/2A) in the case of 5-HT2C and from ˜1:4 to >100:1 (1A/2A) in the case of 5-HT1A. […] An azetidinyl amide substituent tended to increase potency at 5-HT1A relative to 5-HT2A.
# Functional Assay at 5-HT1B. Agonist activity at 5-HT1B was determined using a cAMP accumulation protocol at WuXi AppTec (Hong Kong) Limited according to their standard protocols. Briefly, stably transfected cells were plated in an OptiPlate-384 well plate, incubated at RT for 60 mins, and cAMP standard solution (800 nM, 10 μL) was added to the blank well. Then, 10 μL detection reagent was added to each well, the plate incubated for 60 mins at RT, and the plate read using EnVision.
# [3] = Metabolic stability in human liver microsomes (HLM); assay type: in vitro ADME; conditions: both sexes, human, pooled human liver microsomes, pH 7.4, 0.50 mg protein per mL
# Description: HLM Stability. Pooled HLM from adult male and female donors (Corning 452117) were used.
# T1 sequence (P28223 whole entry): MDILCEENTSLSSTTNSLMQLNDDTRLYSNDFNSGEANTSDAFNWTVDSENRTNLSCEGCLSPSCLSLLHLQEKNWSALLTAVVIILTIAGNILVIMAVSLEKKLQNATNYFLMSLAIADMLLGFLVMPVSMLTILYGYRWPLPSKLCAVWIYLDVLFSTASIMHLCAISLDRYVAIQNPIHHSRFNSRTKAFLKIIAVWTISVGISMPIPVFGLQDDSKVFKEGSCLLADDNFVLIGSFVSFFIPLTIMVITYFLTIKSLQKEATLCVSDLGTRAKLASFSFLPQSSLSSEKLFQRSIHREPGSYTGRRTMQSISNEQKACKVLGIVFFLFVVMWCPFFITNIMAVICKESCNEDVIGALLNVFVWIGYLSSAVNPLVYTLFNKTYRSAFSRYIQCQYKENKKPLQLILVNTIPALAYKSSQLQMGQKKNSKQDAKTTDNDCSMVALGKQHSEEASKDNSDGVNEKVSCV
SMILES,Ki (5-HT2A receptor [1]),5-HT2A % Act @ Max Dose (5-HT2A receptor [2]),EC50 (5-HT2A receptor [2]),5-HT1A % Act @ Max Dose (5-HT1A receptor),EC50 (5-HT1A receptor),5-HT2B % Act @ Max Dose (5-HT2B receptor),EC50 (5-HT2B receptor),5-HT1B % Act @ Max Dose (5-HT1B receptor),EC50 (5-HT1B receptor),half-life at 1 μM [3],microsomal CLint at 1 μM [3],"agonist activity at serotonin receptors (in words) (5-HT2A receptor [2]; Ca^2+ flux / cAMP functional assays, receptors tested)",selectivity for 5-HT2A compared to the other serotonin receptors tested (in words) (5-HT2A receptor [2]; functional agonist assays)
"CCCN1C[C@H](C(=O)N[C@H](C)CC)C=C2c3cccc4[nH]c(Br)c(c34)C[C@H]21 [Compound 46, (6aR,9R)-5-bromo-N—((R)-sec-butyl)-7-propyl-4,6,6a,7,8,9-hexahydroindolo[4,3-fg]quinoline-9-carboxamide]",1.03 nM,69.48%,110 nM,69.48%,707 nM,79.00%,788 nM,78.76%,1180 nM,3.2 min,427 µL/min/mg,–,–
"CCCN1C[C@H](C(=O)N(CC)CC)C=C2c3cccc4[nH]c(Br)c(c34)C[C@H]21 [Compound 9, (6aR,9R)-5-bromo-N,N-diethyl-7-propyl-4,6,6a,7,8,9-hexahydroindolo[4,3-fg]quinoline-9-carboxamide]",1.11 nM,75.81%,228 nM,101.39%,96.5 nM,89.6%,400 nM,81.46%,264 nM,9.9 min,140 µL/min/mg,–,–
"CCC[C@@H](C)NC(=O)[C@@H]1C=C2c3cccc4[nH]c(Br)c(c34)C[C@H]2N(C)C1 [Compound 45, (6aR,9R)-5-bromo-N—((R)-pentan-2-yl)-7-methyl-4,6,6a,7,8,9-hexahydroindolo[4,3-fg]quinoline-9-carboxamide]",0.38 nM,22.28%,133 nM,12.53%,> 10000 nM,−0.31%,> 10000 nM,87.10%,245 nM,7.9 min,176 µL/min/mg,–,–
"CN1C[C@H](C(=O)N2CCCC2)C=C2c3cccc4[nH]cc(c34)C[C@H]21 [Int22, ((6aR,9R)-7-methyl-4,6,6a,7,8,9-hexahydroindolo[4,3-fg]quinolin-9-yl)(pyrrolidin-1-yl)methanone]",14.9 nM,89.65%,21.1 nM,103.7%,8.82 nM,21.35%,55.2 nM,94.25%,7.38 nM,> 145 min,< 9.6 µL/min/mg,–,–
"CCN(CC)C(=O)[C@@H]1C=C2c3cccc4[nH]c(Br)c(c34)C[C@H]2N(CCCF)C1 [Compound 41, (6aR,9R)-5-bromo-N,N-diethyl-7-(3-fluoropropyl)-4,6,6a,7,8,9-hexahydroindolo[4,3-fg]quinoline-9-carboxamide]",0.58 nM,75.44%,116 nM,39.75%,> 10000 nM,84.51%,509 nM,61.49%,> 10000 nM,10.7 min,130 µL/min/mg,–,–
"C=CCN1C[C@H](C(=O)N2[C@@H](C)C[C@@H]2C)C=C2c3cccc4[nH]cc(c34)C[C@H]21 [Compound 27, ((6aR,9R)-7-allyl-4,6,6a,7,8,9-hexahydroindolo[4,3-fg]quinolin-9-yl)((2S,4S)-2,4-dimethylazetidin-1-yl)methanone]",8.96 nM,81.1%,12 nM,90.8%,2.97 nM,96.0%,351 nM,96.92%,88.7 nM,16.1 min,86.1 µL/min/mg,–,–
"CCN(CC)C(=O)[C@@H]1C=C2c3cccc4[nH]c(Br)c(c34)C[C@H]2N(CCC(F)(F)F)C1 [Compound 42, (6aR,9R)-5-bromo-N,N-diethyl-7-(3,3,3-trifluoropropyl)-4,6,6a,7,8,9-hexahydroindolo[4,3-fg]quinoline-9-carboxamide]",1.84 nM,8.29%,> 1000 nM,9.13%,> 10000 nM,2.58%,> 10000 nM,33.13%,> 10000 nM,11.1 min,125 µL/min/mg,no agonist activity,–
"CC[C@@H](C)NC(=O)[C@@H]1C=C2c3cccc4[nH]cc(c34)C[C@H]2N(CCC(F)(F)F)C1 [Compound 40, (6aR,9R)—N—((R)-sec-butyl)-7-(3,3,3-trifluoropropyl)-4,6,6a,7,8,9-hexahydroindolo[4,3-fg]quinoline-9-carboxamide]",37.7 nM,45.12%,169 nM,22.27%,> 10000 nM,8.46%,> 10000 nM,62.14%,8310 nM,3.2 min,435 µL/min/mg,–,highly selective
"CN1C[C@H](C(=O)N(CCF)CCF)C=C2c3cccc4[nH]cc(c34)C[C@H]21 [Compound 38, (6aR,9R)—N,N-bis(2-fluoroethyl)-7-methyl-4,6,6a,7,8,9-hexahydroindolo[4,3-fg]quinoline-9-carboxamide]",0.84 nM,93.39%,11.8 nM,90.5%,3.45 nM,28.13%,22.1 nM,94.72%,4.65 nM,64 min,21.6 µL/min/mg,–,–
"CC[C@@H](C)NC(=O)[C@@H]1C=C2c3cccc4[nH]c(Br)c(c34)C[C@H]2N(C)C1 [Compound 43, (6aR,9R)-5-bromo-N—((R)-sec-butyl)-7-methyl-4,6,6a,7,8,9-hexahydroindolo[4,3-fg]quinoline-9-carboxamide]",1.13 nM,39.32%,118 nM,6.30%,> 10000 nM,1.00%,> 10000 nM,83.76%,311 nM,24.8 min,56 µL/min/mg,–,–
"CCN(CC)C(=O)[C@@H]1C=C2c3cccc4[nH]cc(c34)C[C@H]2N(CCF)C1 [Compound 39, (6aR,9R)—N,N-diethyl-7-(2-fluoroethyl)-4,6,6a,7,8,9-hexahydroindolo[4,3-fg]quinoline-9-carboxamide]",4.54 nM,95.52%,16.2 nM,91.21%,239 nM,85.46%,137 nM,99.00%,1100 nM,31.7 min,43.8 µL/min/mg,–,–
